ChEMBL document CHEMBL1201862, “PubChem BioAssay data set” (2004)
Active and inactive are the calls of the source.

Experiments:
[1] = biological target: 1-phosphatidylinositol 4,5-bisphosphate phosphodiesterase gamma-1 (Homo sapiens, UniProt P19174); assay: Counterscreen for inhibitors of phospholipase C isozymes (PLC-B3): Fluorescence-based biochemical high throughput dose response assay to identify inhibitors of phospholipase C isozymes (PLC-gamma1).
[2] = biological target: 1-phosphatidylinositol 4,5-bisphosphate phosphodiesterase beta-3 (Homo sapiens, UniProt Q01970); assay: Fluorescence-based biochemical high throughput dose response assay to identify inhibitors of phospholipase C isozymes (PLC-B3).
[3] = biological target: NAD-dependent protein deacylase sirtuin-5, mitochondrial (Homo sapiens, UniProt Q9NXA8); assay: sirtuin-5 deacylation blockers, concentration series – biochemical, fluorescence imaging, cherry-pick, set 5, dose response (AID 720591);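 note: desuccinylation of succinyl peptide AMC substrate read as fluorescence after trypsin release; potency of inhibitors that lower fluorescence and may act on trypsin instead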
fMet-Leu-Phe receptor = fMet-Leu-Phe receptor (Homo sapiens, UniProt P21462); assay: formyl peptide receptor binders – dose response (AID 519); assay type: functional
[4] = general mammalian cell viability loss – activator set, cherry-pick, cytotoxicity control for miR-122 modulator project, dose response (AID 720690); assay type: functional, cell-based;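 note: HEK293T human cells scored for general mammalian cytotoxicity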
[5] = activation of miR-122 Renilla sensor silencing – cell-based, Huh7 psiCHECK-miR122, Renilla luciferase, cherry-picked, dose response (AID 651956); assay type: functional;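 note: huh7 hepatoma cells stably carrying a psiCHECK-2 miR-122 sensor plasmid; renilla luciferase signal reporting endogenous miR-122 activity after 48 h compound exposure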
[6] = OVCAR8 cell viability loss – plate reader, dry powder samples, PAX8 project, dose response (AID 743197); assay type: functional, cell-based; conditions: OVCAR-8
[7] = general cell-killing toxicity readout – plate reader, dry powder samples, cytotoxicity control for PAX8 inhibitor project, dose response (AID 743021); assay type: functional, cell-based
[8] = IGROV1 cell killing – plate reader, dry powder samples, PAX8 inhibitor project, dose response (AID 743043); assay type: functional, cell-based; conditions: IGROV-1
Paired box protein Pax-8 = Paired box protein Pax-8 (Homo sapiens, UniProt Q06710); assay: PAX8 transcriptional activity inhibition in RMG-I – RMG-I cells, luciferase, cherry-pick, dose response (AID 687027); assay type: functional, cell-based;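 note: luciferase reporter driven by Pax8 target thyroperoxidase promoter measured by SteadyGlo luminescence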
[9] = OVCAR-3 cell viability loss – plate reader, dry powder samples, PAX8 inhibitor project, dose response (AID 743044); assay type: functional, cell-based
[10] = HIV-1 AD8 envelope cell-cell fusion blockers – cherry-pick, dose response (AID 652062); assay type: functional, cell-based;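 note: luciferase signal from cell-cell fusion driven by HIV-1 clade B AD8 Env; potency is for inhibitors of fusion seen as a drop in luminescence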
[11] = A2780 cell killing – plate reader, dry powder samples, cytotoxicity control, dose response (AID 743046); assay type: functional, cell-based
[12] = blockers of HIV-1 envelope-mediated cell-cell fusion – cherry-pick, dose response (AID 652057); assay type: functional, cell-based
[13] = viability loss in CEM21 cells – cell-based, CellTiter-Glo luminescence, cherry-picked, cytotoxicity control for viral fusion inhibitor project, dose response (AID 652042); assay type: functional;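 note: potency for signal decrease meaning cytotoxicity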
[14] = blockers of HIV-1 ZM109 envelope-driven cell-cell fusion – HeLa effector, CEM target cells, luciferase, cherry-pick, dose response (AID 652058); assay type: functional, cell-based;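 note: luciferase signal from HIV-1 Env mediated cell-cell fusion of effector and target cells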
[15] = toxicity toward immortalized ovarian surface epithelium – cell-based, plate reader, dry powder samples, cytotoxicity control for PAX8 inhibitor project, dose response (AID 743045); assay type: functional
[16] = viability loss in HepG2 hepatoma cells – cell-based, cherry-picks, set 5, cytotoxicity control, dose response (AID 1053118); assay type: functional
[17] = P. falciparum Dd2 growth inhibitors, dose response, SYBR Green, cherry-picked samples (AID 1159567); assay type: functional, cell-based
[18] = toxicity to human hepatoma HepG2 cells – cell-based, cherry-picked samples, cytotoxicity control, dose response (AID 1159577); assay type: functional
[19] = viability loss in A549 lung cancer cells – cell-based, cherry-picks, […], cytotoxicity control, dose response (AID 1053119); assay type: functional
[20] = viability loss in HEK293 kidney cells – cell-based, cherry-picks, set 5, cytotoxicity control, dose response (AID 1053117); assay type: functional
[21] = blockers of FN fibrillogenesis by fibroblasts – AH1F cells, Alexa488-FN fluorescence, cherry-picks, dose response (AID 1035475); assay type: functional, cell-based
Protein RecA = biological target: T1, Protein RecA (Mycobacterium tuberculosis, UniProt P9WHJ3); assay: Fluorescence Cell-Free Homogeneous Dose Retest to Identify Inhibitors of RecA-Intein Splicing Activity. [Related pubchem assays (depositor defined):AID2097, AID2223, AID489010, AID492950]; assay type: functional
T1 sequence (P9WHJ3 whole entry): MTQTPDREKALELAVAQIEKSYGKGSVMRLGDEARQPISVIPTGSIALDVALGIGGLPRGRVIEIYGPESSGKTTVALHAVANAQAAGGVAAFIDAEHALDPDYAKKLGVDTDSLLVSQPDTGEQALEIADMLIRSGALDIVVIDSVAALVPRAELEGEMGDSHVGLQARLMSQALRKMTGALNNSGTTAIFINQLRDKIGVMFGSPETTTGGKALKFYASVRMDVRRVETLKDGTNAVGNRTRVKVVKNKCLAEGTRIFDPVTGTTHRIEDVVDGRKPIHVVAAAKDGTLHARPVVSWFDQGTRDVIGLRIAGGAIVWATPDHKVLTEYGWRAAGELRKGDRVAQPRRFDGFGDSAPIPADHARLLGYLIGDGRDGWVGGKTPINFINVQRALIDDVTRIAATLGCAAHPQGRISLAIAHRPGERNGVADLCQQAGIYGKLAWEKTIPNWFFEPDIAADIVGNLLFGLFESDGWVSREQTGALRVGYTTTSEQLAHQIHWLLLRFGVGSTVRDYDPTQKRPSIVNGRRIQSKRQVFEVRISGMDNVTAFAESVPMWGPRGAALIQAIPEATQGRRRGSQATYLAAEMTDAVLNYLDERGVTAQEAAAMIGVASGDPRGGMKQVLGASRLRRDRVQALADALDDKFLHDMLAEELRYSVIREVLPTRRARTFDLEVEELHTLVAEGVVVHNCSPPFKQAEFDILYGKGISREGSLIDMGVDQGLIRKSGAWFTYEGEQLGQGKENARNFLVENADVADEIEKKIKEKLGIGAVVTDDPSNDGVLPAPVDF

[22] = biological target: T2, Sentrin-specific protease 8 (Homo sapiens, UniProt Q96LD8); assay type: functional
T2 sequence (Q96LD8 whole entry): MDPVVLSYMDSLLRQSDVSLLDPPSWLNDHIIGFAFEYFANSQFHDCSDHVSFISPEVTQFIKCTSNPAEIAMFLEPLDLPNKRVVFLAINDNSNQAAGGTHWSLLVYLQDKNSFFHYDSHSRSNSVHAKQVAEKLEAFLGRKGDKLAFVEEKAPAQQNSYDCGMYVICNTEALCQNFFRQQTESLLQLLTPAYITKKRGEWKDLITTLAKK

[23] = biological target: Tyrosyl-DNA phosphodiesterase 2 (Homo sapiens, UniProt O95551); assay: potency against TDP2 phosphodiesterase activity – biochemical, epi absorbance, IC50, dose response (AID 743297)
[24] = biological target: T3, Heat shock factor protein 1 (Mus musculus, UniProt P38532); assay: decrease of HSF1-responsive luciferase luminescence – cell-based, NIH3T3, dose retest, confirmation (AID 2382); assay type: functional;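 note: NIH3T3 fibroblasts with HSF1-driven luciferase reporter stressed by proteasome inhibitor MG132; luminescence from HSF1-driven luciferase expression after 8 hours of MG132 stress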
T3 sequence (P38532 whole entry): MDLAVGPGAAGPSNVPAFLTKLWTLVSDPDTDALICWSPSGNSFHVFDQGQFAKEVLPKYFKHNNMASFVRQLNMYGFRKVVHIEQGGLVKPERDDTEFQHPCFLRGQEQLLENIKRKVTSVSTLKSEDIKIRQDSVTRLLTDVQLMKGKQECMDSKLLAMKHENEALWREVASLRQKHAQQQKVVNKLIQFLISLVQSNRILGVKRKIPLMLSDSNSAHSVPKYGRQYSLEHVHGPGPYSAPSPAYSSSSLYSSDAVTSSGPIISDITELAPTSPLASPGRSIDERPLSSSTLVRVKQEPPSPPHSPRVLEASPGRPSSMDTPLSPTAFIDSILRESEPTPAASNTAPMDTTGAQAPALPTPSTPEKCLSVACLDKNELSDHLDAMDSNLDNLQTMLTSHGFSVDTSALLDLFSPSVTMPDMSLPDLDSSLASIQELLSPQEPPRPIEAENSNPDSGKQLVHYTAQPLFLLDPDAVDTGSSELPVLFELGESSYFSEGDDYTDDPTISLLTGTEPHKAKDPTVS

[25] = biological target: T4, Replicative DNA helicase DnaB (Mycobacterium tuberculosis, UniProt P9WMR3); assay: DnaB intein splicing inhibitors, dose response, biochemical, cell-free fluorescence (AID 449749); assay type: functional
T4 sequence (P9WMR3 whole entry): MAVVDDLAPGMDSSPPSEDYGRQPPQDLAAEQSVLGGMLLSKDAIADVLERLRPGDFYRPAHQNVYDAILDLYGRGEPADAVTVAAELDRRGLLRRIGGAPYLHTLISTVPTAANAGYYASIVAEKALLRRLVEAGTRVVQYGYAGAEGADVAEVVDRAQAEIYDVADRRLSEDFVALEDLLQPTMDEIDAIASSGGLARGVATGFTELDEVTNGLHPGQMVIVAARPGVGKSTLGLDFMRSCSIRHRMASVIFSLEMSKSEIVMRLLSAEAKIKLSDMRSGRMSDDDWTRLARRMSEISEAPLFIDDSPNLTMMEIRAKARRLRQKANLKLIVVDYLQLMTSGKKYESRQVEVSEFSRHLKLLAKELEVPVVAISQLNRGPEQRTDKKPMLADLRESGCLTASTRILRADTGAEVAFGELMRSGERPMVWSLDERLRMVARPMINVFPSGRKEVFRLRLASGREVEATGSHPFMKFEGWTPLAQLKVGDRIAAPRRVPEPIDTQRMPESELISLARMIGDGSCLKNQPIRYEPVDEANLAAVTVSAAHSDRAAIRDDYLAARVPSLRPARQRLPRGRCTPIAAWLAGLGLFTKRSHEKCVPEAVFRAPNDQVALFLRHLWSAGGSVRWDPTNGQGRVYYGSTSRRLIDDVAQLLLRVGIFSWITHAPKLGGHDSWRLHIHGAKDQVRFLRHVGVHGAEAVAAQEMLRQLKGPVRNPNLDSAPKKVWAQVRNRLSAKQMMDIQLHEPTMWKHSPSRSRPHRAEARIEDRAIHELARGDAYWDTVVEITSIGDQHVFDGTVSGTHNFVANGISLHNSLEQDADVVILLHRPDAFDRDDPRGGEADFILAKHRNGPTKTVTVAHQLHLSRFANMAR

[26] = biological target: T2, Sentrin-specific protease 8; assay type: functional; remark: listed apart in the source

Paired box protein Pax-8, sequence (Q06710 whole entry): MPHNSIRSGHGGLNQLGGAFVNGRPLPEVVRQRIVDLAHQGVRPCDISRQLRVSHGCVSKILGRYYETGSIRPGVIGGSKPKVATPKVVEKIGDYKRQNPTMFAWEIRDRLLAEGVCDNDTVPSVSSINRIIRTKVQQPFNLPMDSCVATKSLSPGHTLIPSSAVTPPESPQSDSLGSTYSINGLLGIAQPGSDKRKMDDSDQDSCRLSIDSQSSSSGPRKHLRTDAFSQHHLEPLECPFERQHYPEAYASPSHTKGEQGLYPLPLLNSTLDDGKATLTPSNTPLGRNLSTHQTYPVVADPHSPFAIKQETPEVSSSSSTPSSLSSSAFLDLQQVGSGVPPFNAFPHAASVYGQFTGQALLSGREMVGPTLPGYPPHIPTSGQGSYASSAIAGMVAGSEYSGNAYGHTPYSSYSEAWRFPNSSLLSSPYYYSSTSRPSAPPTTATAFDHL
fMet-Leu-Phe receptor, sequence (P21462 whole entry): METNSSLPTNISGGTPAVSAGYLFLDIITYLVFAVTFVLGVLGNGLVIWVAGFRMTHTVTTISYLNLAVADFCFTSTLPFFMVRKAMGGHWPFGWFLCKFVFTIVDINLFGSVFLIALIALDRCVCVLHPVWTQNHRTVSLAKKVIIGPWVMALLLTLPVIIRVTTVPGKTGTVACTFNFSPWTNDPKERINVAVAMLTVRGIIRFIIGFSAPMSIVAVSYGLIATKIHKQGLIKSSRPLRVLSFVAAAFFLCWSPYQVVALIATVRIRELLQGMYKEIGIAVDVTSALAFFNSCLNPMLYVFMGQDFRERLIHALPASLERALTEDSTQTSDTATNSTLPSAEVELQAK
1-phosphatidylinositol 4,5-bisphosphate phosphodiesterase beta-3, sequence (Q01970 whole entry): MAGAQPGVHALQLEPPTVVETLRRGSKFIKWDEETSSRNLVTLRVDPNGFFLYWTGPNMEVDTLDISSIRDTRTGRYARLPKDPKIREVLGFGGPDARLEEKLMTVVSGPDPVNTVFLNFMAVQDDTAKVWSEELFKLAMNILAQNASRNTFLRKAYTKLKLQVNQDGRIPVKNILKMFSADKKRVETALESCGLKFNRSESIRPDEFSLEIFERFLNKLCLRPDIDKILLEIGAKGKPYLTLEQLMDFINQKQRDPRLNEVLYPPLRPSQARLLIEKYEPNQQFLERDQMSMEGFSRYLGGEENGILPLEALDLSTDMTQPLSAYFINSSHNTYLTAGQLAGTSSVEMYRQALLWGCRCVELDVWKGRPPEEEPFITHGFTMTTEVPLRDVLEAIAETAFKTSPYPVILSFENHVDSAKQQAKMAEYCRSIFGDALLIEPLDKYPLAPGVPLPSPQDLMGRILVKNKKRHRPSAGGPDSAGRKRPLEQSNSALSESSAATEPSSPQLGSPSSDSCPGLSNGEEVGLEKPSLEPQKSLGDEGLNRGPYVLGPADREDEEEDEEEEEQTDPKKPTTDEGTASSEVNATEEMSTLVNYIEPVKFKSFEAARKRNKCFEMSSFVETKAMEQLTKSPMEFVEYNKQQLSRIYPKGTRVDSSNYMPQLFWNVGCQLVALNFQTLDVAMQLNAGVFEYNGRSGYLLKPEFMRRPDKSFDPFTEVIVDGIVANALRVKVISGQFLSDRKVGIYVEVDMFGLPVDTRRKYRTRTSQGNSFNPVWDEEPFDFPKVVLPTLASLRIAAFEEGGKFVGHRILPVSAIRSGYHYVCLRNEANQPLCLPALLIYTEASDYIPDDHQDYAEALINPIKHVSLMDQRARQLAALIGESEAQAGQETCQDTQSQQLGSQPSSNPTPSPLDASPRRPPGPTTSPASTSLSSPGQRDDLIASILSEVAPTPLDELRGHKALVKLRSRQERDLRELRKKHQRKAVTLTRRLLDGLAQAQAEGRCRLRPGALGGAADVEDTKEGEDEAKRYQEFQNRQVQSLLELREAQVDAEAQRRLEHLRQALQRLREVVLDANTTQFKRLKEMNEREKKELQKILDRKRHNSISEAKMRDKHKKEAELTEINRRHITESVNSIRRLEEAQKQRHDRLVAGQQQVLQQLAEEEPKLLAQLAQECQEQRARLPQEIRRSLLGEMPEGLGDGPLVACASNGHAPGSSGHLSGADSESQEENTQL
NAD-dependent protein deacylase sirtuin-5, mitochondrial, sequence (Q9NXA8 whole entry): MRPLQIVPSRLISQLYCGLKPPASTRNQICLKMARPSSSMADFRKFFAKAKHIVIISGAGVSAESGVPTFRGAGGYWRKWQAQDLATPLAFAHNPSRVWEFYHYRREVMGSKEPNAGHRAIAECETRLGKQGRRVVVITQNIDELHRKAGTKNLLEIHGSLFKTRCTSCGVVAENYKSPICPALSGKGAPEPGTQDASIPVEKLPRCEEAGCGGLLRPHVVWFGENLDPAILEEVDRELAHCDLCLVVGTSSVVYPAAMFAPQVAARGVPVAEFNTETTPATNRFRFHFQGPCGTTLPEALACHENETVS
1-phosphatidylinositol 4,5-bisphosphate phosphodiesterase gamma-1, sequence (P19174 whole entry): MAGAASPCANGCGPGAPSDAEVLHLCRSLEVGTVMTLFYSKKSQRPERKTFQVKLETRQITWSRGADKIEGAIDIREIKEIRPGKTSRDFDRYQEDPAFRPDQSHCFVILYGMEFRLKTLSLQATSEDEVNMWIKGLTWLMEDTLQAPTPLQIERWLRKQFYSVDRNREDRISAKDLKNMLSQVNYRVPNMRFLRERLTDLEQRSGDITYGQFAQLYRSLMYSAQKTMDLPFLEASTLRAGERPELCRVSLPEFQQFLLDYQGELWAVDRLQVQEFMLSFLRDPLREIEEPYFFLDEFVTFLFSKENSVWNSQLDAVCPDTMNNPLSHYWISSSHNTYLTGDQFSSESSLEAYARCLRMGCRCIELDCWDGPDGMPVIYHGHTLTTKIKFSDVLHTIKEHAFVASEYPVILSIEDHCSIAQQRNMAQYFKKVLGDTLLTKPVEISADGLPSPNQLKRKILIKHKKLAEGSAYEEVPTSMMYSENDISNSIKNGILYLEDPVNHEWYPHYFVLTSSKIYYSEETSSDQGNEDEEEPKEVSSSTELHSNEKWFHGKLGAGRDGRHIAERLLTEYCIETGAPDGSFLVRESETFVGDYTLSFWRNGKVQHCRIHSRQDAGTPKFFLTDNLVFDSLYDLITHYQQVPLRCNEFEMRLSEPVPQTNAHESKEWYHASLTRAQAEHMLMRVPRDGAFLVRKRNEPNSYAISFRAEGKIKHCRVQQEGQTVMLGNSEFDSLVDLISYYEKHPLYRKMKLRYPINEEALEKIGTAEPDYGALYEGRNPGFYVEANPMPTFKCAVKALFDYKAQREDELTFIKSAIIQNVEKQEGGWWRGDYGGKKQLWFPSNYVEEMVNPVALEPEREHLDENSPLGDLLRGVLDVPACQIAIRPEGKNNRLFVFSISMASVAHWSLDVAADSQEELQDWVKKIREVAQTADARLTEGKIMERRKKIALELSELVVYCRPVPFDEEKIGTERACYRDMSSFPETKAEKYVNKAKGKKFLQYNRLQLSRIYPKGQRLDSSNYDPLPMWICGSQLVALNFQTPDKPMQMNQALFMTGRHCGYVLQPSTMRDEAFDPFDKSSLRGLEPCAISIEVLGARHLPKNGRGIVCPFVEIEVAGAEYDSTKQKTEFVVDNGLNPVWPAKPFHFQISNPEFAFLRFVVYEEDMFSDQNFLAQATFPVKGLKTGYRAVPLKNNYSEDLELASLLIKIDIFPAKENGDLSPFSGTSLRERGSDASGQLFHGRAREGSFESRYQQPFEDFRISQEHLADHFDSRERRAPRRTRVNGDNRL
Tyrosyl-DNA phosphodiesterase 2, sequence (O95551 whole entry): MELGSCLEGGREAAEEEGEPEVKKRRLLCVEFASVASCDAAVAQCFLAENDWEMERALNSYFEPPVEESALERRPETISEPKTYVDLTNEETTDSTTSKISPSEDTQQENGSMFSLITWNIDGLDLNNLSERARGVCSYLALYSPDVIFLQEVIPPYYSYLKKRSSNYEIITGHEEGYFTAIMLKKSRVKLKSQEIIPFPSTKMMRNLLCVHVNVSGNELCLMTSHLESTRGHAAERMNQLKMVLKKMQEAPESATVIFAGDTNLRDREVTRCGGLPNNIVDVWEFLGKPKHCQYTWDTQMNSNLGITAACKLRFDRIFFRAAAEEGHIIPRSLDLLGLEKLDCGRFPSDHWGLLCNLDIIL

O=S(=O)(c1ccc(Cl)cc1)c1cnc2ccccc2n1
IC50 [1]: > 123 µM (inactive)
IC50 [2]: > 123 µM (inactive)

O=S(=O)(c1ccc(NC2=NN=C(c3cc(F)ccc3F)CS2)cc1)N1CCOCC1
AC50 [3]: > 30 µM (inactive)

C/C(=C1/SC(N2CCCC2)=NC1=O)c1ccc(Br)cc1
Ki (fMet-Leu-Phe receptor): > 66.7 µM (inactive)

CCOC(=O)CSc1nnc(Cn2c(=O)sc3ccccc32)n1-c1ccccc1C
IC50 [1]: > 122 µM (inactive)
IC50 [2]: > 122 µM (inactive)

CCOc1ccc(C2C(C(=O)c3ccco3)=C(O)C(=O)N2Cc2cccnc2)cc1 (stereo not given)
Ki (fMet-Leu-Phe receptor): 15.3 µM (inactive)

CCN(Cc1nc(-c2ccccc2)no1)C(=O)c1ccco1
AC50 [3]: > 30 µM (inactive)

COc1ccc(NC(=O)N2CCCCN3[C@H](CO)[C@H](c4ccc(C#CCC(C)C)cc4)[C@H]3C2)cc1
AC50 [4]: 16 µM (active)
AC50 [5]: 7.68 µM (active)

CN1C(=O)c2cc(NC(=O)c3ccc(C(F)(F)F)cc3)ccc2OC[C@@H]2O[C@H](CC(=O)NCc3ccc4c(c3)OCO4)CC[C@H]21
AC50 [4]: 34.9 µM (active)
AC50 [5]: 53.6 µM (active)

COc1ccc(-c2ccc3c(c2)[C@H]2[C@H](CCN2S(=O)(=O)c2ccc(F)cc2)[C@H](CO)N3C)cc1
AC50 [6]: 31.8 µM (active)
AC50 [7]: 63.7 µM (active)
AC50 [8]: 34.4 µM (active)
AC50 (Paired box protein Pax-8): 8.98 µM (active)
AC50 [9]: 19.3 µM (active)

C[C@@H]1CN([C@@H](C)CO)C(=O)Cc2cc(NS(=O)(=O)c3ccccc3)ccc2O[C@H]1CN(C)Cc1ccc(Cl)c(Cl)c1
AC50 [10]: 1.19 µM (active)
AC50 [11]: 24.9 µM (active)
AC50 [6]: 11.5 µM (active)
AC50 [7]: 3.32 µM (active)
AC50 [8]: 5.66 µM (active)
AC50 [12]: 8.55 µM (active)
AC50 [13]: 20.3 µM (active)
AC50 (Paired box protein Pax-8): 2.42 µM (active)
AC50 [14]: 0.289 µM (active)
AC50 [15]: 10.8 µM (active)
AC50 [9]: 11 µM (active)

CO[C@@H]1CN(C)C(=O)c2cc(NC(=O)Nc3ccc(Cl)c(Cl)c3)ccc2OC[C@@H](C)NC[C@@H]1C
AC50 [16]: > 52 µM (inactive)
AC50 [17]: 5.7 µM (active)
AC50 [18]: 18.2 µM (active)
AC50 [19]: > 52 µM (inactive)
AC50 [20]: 45.9 µM (active)

O=S(=O)(c1cccc(F)c1)N1CC[C@@H]2[C@H](CO)Nc3ccc(-c4cccc(F)c4)cc3[C@@H]21
AC50 [21]: > 70 µM (inactive)
AC50 [16]: 42 µM (active)
AC50 [19]: 33.4 µM (active)
AC50 [20]: 27.2 µM (active)

C[C@@H]1CN([C@@H](C)CO)C(=O)c2cc(NC(=O)C3CCCCC3)ccc2O[C@H]1CN(C)Cc1ccc(-c2ccccc2)cc1
AC50 [21]: 30.9 µM (active)
AC50 [20]: > 52 µM (inactive)

Nn1cnnc1N/N=C/c1ccc(Cl)c([N+](=O)[O-])c1
EC50 (Protein RecA): 10.3 µM (active)
IC50 [22]: 23.2 µM (active)
IC50 [23]: 81.2 µM (inactive)
EC50 [24]: 10.2 µM (active)
AC50 [25]: 18.1 µM (active)
IC50 [26]: 21.7 µM (active)
